Patent US7300946B2, “N-(substituted arylmethyl)-4-(disubstituted methyl) piperidines and pyridines” (Bayer CropScience AG, priority 2002, dated 2007)

Test system: tobacco budworm (Heliothis virescens [Fabricius])
Experiment: surface-treated diet test against the tobacco budworm
Assay type: in vivo
Details: tobacco budworm second instar larvae, surface-treated diet, 0.25 millimoles of candidate insecticide on the surface of the diet, five-day exposure; for Percent Mortality: compared to total number of insects infested; for Percent Growth Inhibition: inhibition of insect weight relative to untreated controls
Procedure, shortened: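 Wheat germ artificial diet surface-treated with 40 µL of 50 mM DMSO stock diluted 1:7 in 1:1 water/acetone (0.25 millimolar on diet), or sub-multiples for rate tests. One second-instar larva per well, 25° C, 60% RH, 5 days; percent weight inhibition vs DMSO controls and percent mortality.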

Compound | Percent Mortality [%] | Percent Growth Inhibition [%]
CC(C)OC(=O)Nc1ccc(CN2CCC(C(OC(=O)Nc3cccc(F)c3)c3ccc(Cl)cc3)CC2)cc1 (stereo not shown) [Compound 501] | 100 | 100
CC(C)OC(=O)Nc1ccc(CN2CCC(C(OC(=O)Nc3cc(F)cc(F)c3)c3ccc(Cl)cc3)CC2)cc1 (stereo not shown) [Compound 502] | 100 | 100
CC(C)OC(=O)Nc1ccc(CN2CCC(C(OC(=O)Nc3ccc(Cl)cc3)c3ccc(F)cc3)CC2)cc1 (stereo not shown) [Compound 503] | 100 | 100
CC(C)OC(=O)Nc1ccc(CN2CCC(C(OC(=O)Nc3cccc(F)c3)c3ccc(F)cc3)CC2)cc1 (stereo not shown) [Compound 504] | 100 | 100
CC(C)OC(=O)Nc1ccc(CN2CCC(C(OC(=O)Nc3cc(F)cc(F)c3)c3ccc(F)cc3)CC2)cc1 (stereo not shown) [Compound 505] | 100 | 100
CC(C)OC(=O)Nc1ccc(CN2CCC(C(OC(=O)Nc3ccc(Cl)cc3)c3ccc(Cl)cc3Cl)CC2)cc1 (stereo not shown) [Compound 506] | 100 | 100
CC(C)OC(=O)Nc1ccc(CN2CCC(C(OC(=O)Nc3cc(F)cc(F)c3)c3ccc(Cl)cc3Cl)CC2)cc1 (stereo not shown) [Compound 507] | 100 | 100
CC(C)OC(=O)Nc1ccc(CN2CCC(C(OC(=O)Nc3ccc(Cl)cc3)c3cc(Cl)cc(Cl)c3)CC2)cc1 (stereo not shown) [Compound 508] | 100 | 100
CC(C)OC(=O)Nc1ccc(CN2CCC(C(OC(=O)Nc3cccc(F)c3)c3cc(Cl)cc(Cl)c3)CC2)cc1 (stereo not shown) [Compound 509] | 100 | 100
CC(C)OC(=O)Nc1ccc(CN2CCC(C(OC(=O)Nc3cc(F)cc(F)c3)c3cc(Cl)cc(Cl)c3)CC2)cc1 (stereo not shown) [Compound 510] | 100 | 100
CC(C)OC(=O)Nc1ccc(CN2CCC(C(OC(=O)Nc3cc(F)cc(F)c3)c3ccc(C(F)(F)F)cc3)CC2)cc1 (stereo not shown) [Compound 512] | 100 | 100
CC(C)OC(=O)Nc1ccc(CN2CCC(C(OC(=O)Nc3ccc(Cl)cc3)c3ccc(OC(F)(F)F)cc3)CC2)cc1 (stereo not shown) [Compound 513] | 100 | 100
CC(C)OC(=O)Nc1ccc(CN2CCC(C(OC(=O)Nc3cccc(F)c3)c3ccc(OC(F)(F)F)cc3)CC2)cc1 (stereo not shown) [Compound 514] | 100 | 100
CC(C)OC(=O)Nc1ccc(CN2CCC(C(OC(=O)Nc3cc(F)cc(F)c3)c3ccc(OC(F)(F)F)cc3)CC2)cc1 (stereo not shown) [Compound 515] | 100 | 100
COC(=O)N(c1ccc(CN2CCC(C(OC(=O)Nc3cc(F)cc(F)c3)c3ccc(C(F)(F)F)cc3)CC2)cc1)c1ccccn1 (stereo not shown) [Compound 516] | 100 | 100
CCNC(=O)Nc1ccc(CN2CCC(C(OC(=O)Nc3cc(F)cc(F)c3)c3ccc(C(F)(F)F)cc3)CC2)cc1 (stereo not shown) [Compound 517] | 0 | 86
CCNC(=S)Nc1ccc(CN2CCC(C(OC(=O)Nc3cc(F)cc(F)c3)c3ccc(C(F)(F)F)cc3)CC2)cc1 (stereo not shown) [Compound 518] | 17 | 96
CN(C)C(=O)Nc1ccc(CN2CCC(C(OC(=O)Nc3cc(F)cc(F)c3)c3ccc(C(F)(F)F)cc3)CC2)cc1 (stereo not shown) [Compound 519] | 17 | 93
CNC(=O)Oc1ccc(CN2CCC(C(OC(=O)Nc3ccccc3)c3ccc(C(F)(F)F)cc3)CC2)cc1 (stereo not shown) [Compound 521] | 100 | 100
CCON=Cc1ccc(CN2CCC(C(OC(=O)Nc3ccc(Cl)cc3)c3ccc(Cl)cc3)CC2)cc1 (stereo not shown) [Compound 523] | 100 | 100
CCON=Cc1ccc(CN2CCC(C(OC(=O)Nc3cccc(F)c3)c3ccc(Cl)cc3)CC2)cc1 (stereo not shown) [Compound 524] | 100 | 100
CCON=Cc1ccc(CN2CCC(C(OC(=O)Nc3cc(F)cc(F)c3)c3ccc(Cl)cc3)CC2)cc1 (stereo not shown) [Compound 525] | 100 | 100
CCON=Cc1ccc(CN2CCC(C(OC(=O)Nc3ccc(Cl)cc3)c3ccc(F)cc3)CC2)cc1 (stereo not shown) [Compound 526] | 100 | 100
CCON=Cc1ccc(CN2CCC(C(OC(=O)Nc3cccc(F)c3)c3ccc(F)cc3)CC2)cc1 (stereo not shown) [Compound 527] | 100 | 100
CCON=Cc1ccc(CN2CCC(C(OC(=O)Nc3cc(F)cc(F)c3)c3ccc(F)cc3)CC2)cc1 (stereo not shown) [Compound 528] | 100 | 100

Compound | Percent Mortality [%] | Percent Growth Inhibition [%]
CCON=Cc1ccc(CN2CCC(C(OC(=O)Nc3ccc(Cl)cc3)c3ccc(Cl)cc3Cl)CC2)cc1 (stereo not shown) [Compound 529] | 100 | 100
CCON=Cc1ccc(CN2CCC(C(OC(=O)Nc3cccc(F)c3)c3ccc(Cl)cc3Cl)CC2)cc1 (stereo not shown) [Compound 530] | 100 | 100
CCON=Cc1ccc(CN2CCC(C(OC(=O)Nc3cc(F)cc(F)c3)c3ccc(Cl)cc3Cl)CC2)cc1 (stereo not shown) [Compound 531] | 100 | 100
CCON=Cc1ccc(CN2CCC(C(OC(=O)Nc3ccc(Cl)cc3)c3cc(Cl)cc(Cl)c3)CC2)cc1 (stereo not shown) [Compound 532] | 100 | 100
CCON=Cc1ccc(CN2CCC(C(OC(=O)Nc3cccc(F)c3)c3cc(Cl)cc(Cl)c3)CC2)cc1 (stereo not shown) [Compound 533] | 100 | 100
CCON=Cc1ccc(CN2CCC(C(OC(=O)Nc3cc(F)cc(F)c3)c3cc(Cl)cc(Cl)c3)CC2)cc1 (stereo not shown) [Compound 534] | 100 | 100
CCON=Cc1ccc(CN2CCC(C(OC(=O)Nc3cccc(F)c3)c3ccc(C(F)(F)F)cc3)CC2)cc1 (stereo not shown) [Compound 535] | 100 | 100
CCON=Cc1ccc(CN2CCC(C(OC(=O)N(C)c3ccccc3)c3ccc(C(F)(F)F)cc3)CC2)cc1 (stereo not shown) [Compound 536] | 100 | 100
CCON=Cc1ccc(CN2CCC(C(OC(=O)Nc3ccc(Cl)cc3)c3ccc(OC(F)(F)F)cc3)CC2)cc1 (stereo not shown) [Compound 537] | 100 | 100
CCON=Cc1ccc(CN2CCC(C(OC(=O)Nc3cc(F)cc(F)c3)c3ccc(OC(F)(F)F)cc3)CC2)cc1 (stereo not shown) [Compound 538] | 100 | 100
C#CCON=Cc1ccc(CN2CCC(C(OC(=O)Nc3ccc(Cl)cc3)c3ccc(C(F)(F)F)cc3)CC2)cc1 (stereo not shown) [Compound 539] | 100 | 100
C#CCON=Cc1ccc(CN2CCC(C(OC(=O)Nc3cc(F)cc(F)c3)c3ccc(C(F)(F)F)cc3)CC2)cc1 (stereo not shown) [Compound 540] | 100 | 100
CCN(CC)S(=O)(=O)c1ccc(CN2CCC(C(OC(=O)Nc3cc(F)cc(F)c3)c3ccc(C(F)(F)F)cc3)CC2)cc1 (stereo not shown) [Compound 541] | 0 | 59
O=C(Nc1cc(F)cc(F)c1)OC(c1ccc(C(F)(F)F)cc1)C1CCN(Cc2ccc(S(=O)(=O)NC3CCCC3)cc2)CC1 (stereo not shown) [Compound 542] | 0 | 43
O=C(Nc1ccc(Cl)cc1)OC(c1ccc(C(F)(F)F)cc1)C1CCN(Cc2ccc(-c3ccccc3)cc2)CC1 (stereo not shown) [Compound 543] | 100 | 100
O=C(Nc1cc(F)cc(F)c1)OC(c1ccc(C(F)(F)F)cc1)C1CCN(Cc2ccc(-c3ccccc3)cc2)CC1 (stereo not shown) [Compound 544] | 100 | 100
O=C(Nc1ccc(Cl)cc1)OC(c1ccc(C(F)(F)F)cc1)C1CCN(Cc2ccc(Oc3ccccc3)cc2)CC1 (stereo not shown) [Compound 545] | 100 | 100
O=C(Nc1cc(F)cc(F)c1)OC(c1ccc(C(F)(F)F)cc1)C1CCN(Cc2ccc(Oc3ccccc3)cc2)CC1 (stereo not shown) [Compound 546] | 100 | 100
O=C(Nc1cc(F)cc(F)c1)OC(c1ccc(C(F)(F)F)cc1)C1CCN(Cc2ccc(Oc3ccccc3F)cc2)CC1 (stereo not shown) [Compound 547] | 100 | 100
O=C(Nc1cc(F)cc(F)c1)OC(c1ccc(C(F)(F)F)cc1)C1CCN(Cc2ccc(Oc3c(F)cccc3F)cc2)CC1 (stereo not shown) [Compound 548] | 100 | 100
O=C(Nc1cc(F)cc(F)c1)OC(c1ccc(C(F)(F)F)cc1)C1CCN(Cc2ccc(OCc3ccccc3)cc2)CC1 (stereo not shown) [Compound 549] | 0 | 98
O=C(Nc1cc(F)cc(F)c1)OC(c1ccc(C(F)(F)F)cc1)C1CCN(Cc2ccc(NC(=O)c3ccccc3Cl)cc2)CC1 (stereo not shown) [Compound 550] | 100 | 100
O=C(Nc1cc(F)cc(F)c1)OC(c1ccc(C(F)(F)F)cc1)C1CCN(Cc2ccc(NC(=O)c3c(Cl)cccc3Cl)cc2)CC1 (stereo not shown) [Compound 551] | 100 | 100
O=C(Nc1cc(F)cc(F)c1)OC(c1ccc(C(F)(F)F)cc1)C1CCN(Cc2ccc(NC(=O)c3c(F)cccc3F)cc2)CC1 (stereo not shown) [Compound 552] | 100 | 100
COc1ccccc1C(=O)Nc1ccc(CN2CCC(C(OC(=O)Nc3cc(F)cc(F)c3)c3ccc(C(F)(F)F)cc3)CC2)cc1 (stereo not shown) [Compound 553] | 100 | 100
